# Measured values taken from patent US11180504B2 (ORCHID PHARMA LTD., priority 2016, dated 2021).
# Experiments:
# [1] = test system: methicillin-sensitive Staphylococcus aureus; assay: MIC by broth micro-dilution (CLSI), methicillin-sensitive S. aureus; format: cell-based; settings: Staphylococcus aureus, ATCC 29213 / MSSA, MSSA S. aureus ATCC29213; read-out: MIC
# [2] = test system: carbapenem sensitive Escherichia coli; assay: MIC by broth micro-dilution (CLSI), carbapenem sensitive E. coli; format: cell-based; settings: Escherichia coli, ATCC25922, ESBL −ve E. coli ATCC25922; read-out: MIC
# [3] = test system: carbapenemase producing K. pneumoniae; assay: MIC by broth micro-dilution (CLSI), carbapenemase producing K. pneumoniae; format: cell-based, Klebsiella pneumoniae; settings: Klebsiella pneumoniae, ATCCBAA1705, KPC-2 K. pneumoniae ATCC BAA-1705; read-out: MIC
# [4] = test system: carbapenem sensitive Pseudomonas aeruginosa; assay: MIC by broth micro-dilution (CLSI), carbapenem sensitive P. aeruginosa; format: cell-based; settings: Pseudomonas aeruginosa, ATCC27853, Meropenem susceptible P. aeruginosa ATCC27853; read-out: MIC
# [5] = test system: extended spectrum β lactamase (ESBL) SHV18 producing Klebsiella pneumoniae; assay: MIC by broth micro-dilution (CLSI), ESBL SHV18 producing K. pneumoniae; format: cell-based; settings: Klebsiella pneumoniae, ATCC700603, 22 h, ESBL +ve (SHV-18) K. pneumoniae ATCC700603; read-out: MIC
MIC [1] [µg/mL],MIC [2] [µg/mL],MIC [3] [µg/mL],MIC [4] [µg/mL],MIC [5] [µg/mL],Compound
> 128,4,8,16,32,CNCC(=O)N[C@H](C)[C@H]1C(=O)N2C(C(=O)O)=C(S[C@@H]3CN[C@H](C(=O)N4CC(N)C4)C3)[C@H](C)[C@H]12 [Example 189]
64,2,4,4,16,CNCC(=O)N[C@H](C)[C@H]1C(=O)N2C(C(=O)O)=C(S[C@@H]3CN[C@H](C(=O)N4CCC(N)CC4)C3)[C@H](C)[C@H]12 [Example 190]
64,8,8,32,32,CNCC(=O)N[C@H](C)[C@H]1C(=O)N2C(C(=O)O)=C(S[C@@H]3CN[C@H](C(=O)N4C[C@@H](N)C[C@H]4CN)C3)[C@H](C)[C@H]12 [Example 191]
64,1,2,4,2,CNCC(=O)N[C@H](C)[C@H]1C(=O)N2C(C(=O)O)=C(S[C@@H]3CN[C@H](C(=O)N4CC[C@@H](O)C4)C3)[C@H](C)[C@H]12 [Example 192]
64,4,4,8,8,CNCC(=O)N[C@H](C)[C@H]1C(=O)N2C(C(=O)O)=C(S[C@@H]3CN[C@H](C(=O)N4CCC(NC(=O)CN)CC4)C3)[C@H](C)[C@H]12 [Example 193]
8,2,16,16,8,C[C@@H](NC(=O)C(F)F)[C@H]1C(=O)N2C(C(=O)O)=C(S[C@@H]3CN[C@H](C(=O)N4C[C@H](N)[C@@H](N)C4)C3)[C@H](C)[C@H]12 [Example 194]
2,0.5,4,8,1,C[C@@H](NC(=O)C(F)F)[C@H]1C(=O)N2C(C(=O)O)=C(S[C@@H]3CN[C@H](C(=O)N4CC[C@H](NC(=N)N)C4)C3)[C@H](C)[C@H]12 [Example 195]
2,1,8,32,4,C[C@@H](NC(=O)C(F)F)[C@H]1C(=O)N2C(C(=O)O)=C(S[C@@H]3CN[C@H](C(=O)N4CC[C@H](NC(=O)CNC(=N)N)C4)C3)[C@H](C)[C@H]12 [Example 196]
16,4,16,32,16,C[C@@H](NC(=O)CNC1CC1)[C@H]1C(=O)N2C(C(=O)O)=C(S[C@@H]3CN[C@H](C(=O)N4CC[C@@H](N)C4)C3)[C@H](C)[C@H]12 [Example 197]
2,0.25,4,32,1,C[C@@H](NC(=O)C(F)F)[C@H]1C(=O)N2C(C(=O)O)=C(S[C@@H]3CN[C@H](C(=O)N4C[C@H](O)[C@@H](O)C4)C3)[C@H](C)[C@H]12 [Example 198]
32,1,2,4,4,CNCC(=O)N[C@H](C)[C@H]1C(=O)N2C(C(=O)O)=C(S[C@@H]3CN[C@H](C(=O)N4CC[C@H](NC=N)C4)C3)[C@H](C)[C@H]12 [Example 199]
128,2,4,4,8,CNCC(=O)N[C@H](C)[C@H]1C(=O)N2C(C(=O)O)=C(S[C@@H]3CN[C@H](C(=O)N4C[C@H](N)[C@@H](N)C4)C3)[C@H](C)[C@H]12 [Example 200]
16,2,64,16,16,C[C@@H](NS(C)(=O)=O)[C@H]1C(=O)N2C(C(=O)O)=C(S[C@@H]3CN[C@H](C(=O)N(CCN)CCO)C3)[C@H](C)[C@H]12 [Example 201]
64,4,16,8,64,CNCC(=O)N[C@H](C)[C@H]1C(=O)N2C(C(=O)O)=C(S[C@@H]3CN[C@H](C(=O)N(CCN)CCO)C3)[C@H](C)[C@H]12 [Example 202]
16,0.5,4,128,1,C[C@@H](NS(C)(=O)=O)[C@H]1C(=O)N2C(C(=O)O)=C(S[C@@H]3CN[C@H](C(=O)N4CC[C@@H](NS(N)(=O)=O)C4)C3)[C@H](C)[C@H]12 [Example 203]
